From ChEMBL document CHEMBL1155906, “Structural modifications of N-arylamide oxadiazoles: Identification of N-arylpiperidine oxadiazoles as potent and selective agonists of CB2” (Bioorg Med Chem Lett, 2008)
pEC50: −log10 of the molar value. Calls of active or inactive are those of the source. No cut-off for these calls is given here.

How the values were obtained:
Cannabinoid receptor 2 [1] = molecular target: T1, Cannabinoid receptor 2 (Homo sapiens, UniProt P34972); assay: Agonist activity at human CB2 receptor expressed in insect Sf9 cells assessed as effect on Eu-GTP binding
Cannabinoid receptor 1 [2] = molecular target: T2, Cannabinoid receptor 1 (Homo sapiens, UniProt P21554); assay: Agonist activity at human CB1 receptor expressed in insect Sf9 cells assessed as effect on Eu-GTP binding at 10 uM
Cannabinoid receptor 2 [3] = molecular target: T1, Cannabinoid receptor 2; assay: Agonist activity at human CB2 receptor expressed in insect Sf9 cells assessed as effect on Eu-GTP binding relative to CP-55940
Cannabinoid receptor 1 [4] = molecular target: T2, Cannabinoid receptor 1; assay: Agonist activity at human CB1 receptor expressed in insect Sf9 cells assessed as effect on Eu-GTP binding relative to CP-55940
Homo sapiens = organism: Homo sapiens; assay: Selectivity for human CB2 receptor over human CB1 receptor by on Eu-GTP binding assay
Cannabinoid receptor 2 [5] = molecular target: T1, Cannabinoid receptor 2; assay: Agonist activity at human CB2 receptor expressed in insect Sf9 cells assessed as effect on Eu-GTP binding at 10 uM
[6] = Metabolic stability in human liver microsome assessed as intrinsic clearance; assay type: ADME; settings: liver microsomes
[7] = Metabolic stability in rat liver microsome assessed as intrinsic clearance; assay type: ADME; settings: liver microsomes
Cannabinoid receptor 2 [8] = molecular target: T1, Cannabinoid receptor 2; assay: Agonist activity at human CB2 receptor assessed as inhibition of forskolin-induced increase in intracellular cAMP relative to CP-55940; assay type: functional, cell-based
Cannabinoid receptor 1 [9] = molecular target: T2, Cannabinoid receptor 1; assay: Agonist activity at human CB1 receptor expressed in insect Sf9 cells assessed as effect on Eu-GTP binding
[10] = Clearance in iv dosed rat; assay type: ADME, organism-based; settings: in vivo
Cannabinoid receptor 2 [11] = molecular target: T1, Cannabinoid receptor 2; assay: Agonist activity at human CB2 receptor assessed as inhibition of forskolin-induced increase in intracellular cAMP; assay type: functional, cell-based
Cannabinoid receptor 1 [12] = molecular target: T2, Cannabinoid receptor 1; assay: Agonist activity at human CB1 receptor assessed as inhibition of forskolin-induced increase in intracellular cAMP relative to CP-55940; assay type: functional, cell-based
Cannabinoid receptor 1 [13] = molecular target: T2, Cannabinoid receptor 1; assay: Agonist activity at human CB1 receptor assessed as inhibition of forskolin-induced increase in intracellular cAMP; assay type: functional, cell-based

T2 sequence (P21554 whole entry): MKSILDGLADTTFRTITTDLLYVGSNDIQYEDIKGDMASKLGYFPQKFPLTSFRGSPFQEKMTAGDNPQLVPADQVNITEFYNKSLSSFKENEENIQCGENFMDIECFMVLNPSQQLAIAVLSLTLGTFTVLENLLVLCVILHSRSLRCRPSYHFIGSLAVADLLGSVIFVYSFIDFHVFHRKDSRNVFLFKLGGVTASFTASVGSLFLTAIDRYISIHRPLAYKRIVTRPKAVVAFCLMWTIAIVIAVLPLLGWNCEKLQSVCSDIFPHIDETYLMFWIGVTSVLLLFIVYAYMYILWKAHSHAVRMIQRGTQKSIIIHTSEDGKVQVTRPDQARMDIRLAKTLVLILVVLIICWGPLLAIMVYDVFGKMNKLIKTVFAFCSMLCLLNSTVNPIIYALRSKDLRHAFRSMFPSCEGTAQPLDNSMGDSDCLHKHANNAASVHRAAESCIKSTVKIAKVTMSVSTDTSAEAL
T1 sequence (P34972 whole entry): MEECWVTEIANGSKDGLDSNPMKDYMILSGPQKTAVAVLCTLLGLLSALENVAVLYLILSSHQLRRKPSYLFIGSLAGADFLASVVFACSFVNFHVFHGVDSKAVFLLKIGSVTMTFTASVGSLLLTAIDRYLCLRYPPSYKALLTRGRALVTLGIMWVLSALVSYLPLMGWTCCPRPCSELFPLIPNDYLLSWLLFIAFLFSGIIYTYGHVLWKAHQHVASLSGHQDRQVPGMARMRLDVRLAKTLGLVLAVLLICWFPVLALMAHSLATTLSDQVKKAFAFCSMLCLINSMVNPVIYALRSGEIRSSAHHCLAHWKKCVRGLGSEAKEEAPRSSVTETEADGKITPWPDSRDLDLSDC

Structure (SMILES) | pEC50 (Cannabinoid receptor 2 [1]) | Activity (Cannabinoid receptor 1 [2]) | Emax (Cannabinoid receptor 2 [3]) | Emax (Cannabinoid receptor 1 [4]) | Activity (Cannabinoid receptor 2 [5]) | Emax (Cannabinoid receptor 2 [8]) | pEC50 (Cannabinoid receptor 2 [11]) | Emax (Cannabinoid receptor 1 [12]) | pEC50 (Cannabinoid receptor 1 [13]) | Selectivity (Homo sapiens) | microsomal CLint [6] | microsomal CLint [7] | pEC50 (Cannabinoid receptor 1 [9]) | clearance [10]
c1ccc2ncc(N3CCC(c4nc(-c5ccncc5)no4)CC3)cc2c1 | 6.50 | inactive | 53% | 8% | – | – | – | – | – | – | – | – | – | –
O=C(CCc1nc(-c2ccc(F)cc2Cl)no1)Nc1cnc2ccccc2c1 | 8.70 | – | 115% | 51% | – | 98% | 8.30 | 49% | 6.25 | > 200 | 49 µL/min/mg | 126 µL/min/mg | 6.39 | 95 mL/min/kg
Fc1ccc(-c2noc(C3CCN(c4cnc5ccc(OC(F)(F)F)cc5c4)CC3)n2)c(Cl)c1 | 8.52 | – | 110% | 33% | – | – | – | – | – | – | 28 µL/min/mg | 18 µL/min/mg | 6.38 | –
CC(CCc1nc(-c2ccc(F)cc2Cl)no1)Nc1cnc2ccccc2c1 (racemic) | 7.82 | – | 112% | 69% | – | – | – | – | – | > 200 | 142 µL/min/mg | > 399 µL/min/mg | 5.81 | –
CC(C)(CCc1nc(-c2ccc(F)cc2Cl)no1)Nc1cnc2ccccc2c1 | 7.28 | – | 52% | 70% | – | 93% | 7.30 | 46% | < 5.70 | > 200 | 429 µL/min/mg | 775 µL/min/mg | 5.89 | –
Clc1ccc(-c2noc(C3CCN(c4cnc5ccccc5c4)CC3)n2)cc1 | 5.75 | – | 26% | 26% | – | – | – | – | – | – | – | – | 5.58 | –
Clc1ccc(-c2noc(C3CCN(c4cnc5ccccc5c4)CC3)n2)c(Cl)c1 | 7.10 | – | 99% | 27% | – | – | – | – | – | – | 58 µL/min/mg | 43 µL/min/mg | 6.02 | –
Fc1ccc(-c2noc(CCCNc3cnc4ccccc4c3)n2)c(Cl)c1 | 7.96 | – | 104% | 103% | – | – | – | – | – | > 200 | 179 µL/min/mg | 614 µL/min/mg | 6.33 | –
c1ccc2ncc(N3CCC(c4nc(C5CCCCC5)no4)CC3)cc2c1 | 7.59 | – | 113% | 105% | – | – | – | – | – | – | 283 µL/min/mg | 185 µL/min/mg | 6.22 | –
Fc1ccc(-c2noc(C3CCN(c4cnc5c(C(F)(F)F)cccc5c4)CC3)n2)c(Cl)c1 | 7.80 | – | 106% | 34% | – | – | – | – | – | – | 23 µL/min/mg | 54 µL/min/mg | 7.82 | –
Clc1cnccc1-c1noc(C2CCN(c3cnc4ccccc4c3)CC2)n1 | 7.62 | – | 103% | 23% | – | – | – | – | – | – | 251 µL/min/mg | 187 µL/min/mg | 7.02 | –
CC(C)c1noc(C2CCN(c3cnc4ccccc4c3)CC2)n1 | 5.84 | inactive | 38% | 8% | – | – | – | – | – | – | – | – | – | –
Fc1ccc(-c2noc([C@@H]3CCC[C@H]3Nc3cnc4ccccc4c3)n2)c(Cl)c1 (racemic) | 6.33 | – | 73% | 39% | – | – | – | – | – | – | – | – | 5.65 | –
Fc1ccc(-c2noc(C3CCN(c4cnc5c(c4)CCCC5)CC3)n2)c(Cl)c1 | 7.72 | – | 113% | 60% | – | – | – | – | – | – | 95 µL/min/mg | 130 µL/min/mg | 6.04 | –

Now from value to compound, other results behind:

pEC50 (Cannabinoid receptor 2 [1]) | Activity (Cannabinoid receptor 1 [2]) | Emax (Cannabinoid receptor 2 [3]) | Emax (Cannabinoid receptor 1 [4]) | Activity (Cannabinoid receptor 2 [5]) | Emax (Cannabinoid receptor 2 [8]) | pEC50 (Cannabinoid receptor 2 [11]) | Emax (Cannabinoid receptor 1 [12]) | pEC50 (Cannabinoid receptor 1 [13]) | Structure (SMILES) | Selectivity (Homo sapiens) | microsomal CLint [6] | microsomal CLint [7] | pEC50 (Cannabinoid receptor 1 [9]) | clearance [10]
– | inactive | 10% | 0.3% | inactive | – | – | – | – | O=C(O)CCc1nc(-c2ccc(F)cc2Cl)no1 | > 200 | – | – | – | –
5.81 | inactive | 87% | -1% | – | – | – | – | – | O=C(NCCc1nc(-c2ccc(F)cc2Cl)no1)c1cnc2ccccc2c1 | > 200 | – | – | – | –
5.81 | inactive | 89% | 8% | – | – | – | – | – | Fc1ccccc1-c1noc(C2CCN(c3cnc4ccccc4c3)CC2)n1 | – | – | – | – | –
7.49 | – | 108% | 93% | – | – | – | – | – | CC1(C)CCCc2cc(N3CCC(c4nc(-c5ccc(F)cc5Cl)no4)CC3)cnc21 | – | 380 µL/min/mg | > 399 µL/min/mg | 6.14 | –
6.85 | – | 109% | 24% | – | – | – | – | – | Fc1ccc(-c2noc(C[C@H]3CCN(c4cnc5ccccc5c4)C3)n2)c(Cl)c1 | – | 215 µL/min/mg | 579 µL/min/mg | 5.77 | –
7.00 | inactive | 110% | 8% | – | 0% | < 5.70 | 1% | < 5.70 | Fc1ccc(-c2noc([C@H]3C[C@@H]3CNc3cnc4ccccc4c3)n2)c(Cl)c1 (racemic) | – | 69 µL/min/mg | 193 µL/min/mg | – | –
7.07 | – | 116% | 46% | – | 23% | < 5.70 | 3% | < 5.70 | Fc1ccc(-c2noc(C[C@@H]3CCN(c4cnc5ccccc5c4)C3)n2)c(Cl)c1 | – | 215 µL/min/mg | 426 µL/min/mg | 5.90 | –
6.47 | inactive | 88% | 13% | – | – | – | – | – | CC(C)n1ccc2cc(N3CCC(c4nc(-c5ccc(F)cc5Cl)no4)CC3)cnc21 | – | – | – | – | –
5.54 | inactive | 35% | 2% | – | – | – | – | – | Fc1ccc(-c2noc(C3CCN(c4ccnc5ccccc45)CC3)n2)c(Cl)c1 | – | – | – | – | –
7.05 | – | 101% | 36% | – | 95% | 7.77 | 17% | < 6.00 | Fc1ccc(-c2noc(C3CCN(c4cnc5ccccc5c4)CC3)n2)c(Cl)c1 | – | 92 µL/min/mg | 80 µL/min/mg | 5.52 | –
6.42 | inactive | 93% | 2% | – | – | – | – | – | Fc1ccc(-c2noc(C3CCN(c4ccc(Cl)c(C(F)(F)F)c4)CC3)n2)c(Cl)c1 | – | – | – | – | –
5.80 | inactive | 77% | 4% | – | – | – | – | – | Fc1ccc(-c2noc([C@H]3CC[C@@H](Nc4cnc5ccccc5c4)C3)n2)c(Cl)c1 (racemic) | – | – | – | – | –
